These molecules were tested against T1, Stearoyl-CoA desaturase (Homo sapiens, UniProt O00767) (assay: Inhibition of human SCD1).
T1 sequence (O00767 whole entry): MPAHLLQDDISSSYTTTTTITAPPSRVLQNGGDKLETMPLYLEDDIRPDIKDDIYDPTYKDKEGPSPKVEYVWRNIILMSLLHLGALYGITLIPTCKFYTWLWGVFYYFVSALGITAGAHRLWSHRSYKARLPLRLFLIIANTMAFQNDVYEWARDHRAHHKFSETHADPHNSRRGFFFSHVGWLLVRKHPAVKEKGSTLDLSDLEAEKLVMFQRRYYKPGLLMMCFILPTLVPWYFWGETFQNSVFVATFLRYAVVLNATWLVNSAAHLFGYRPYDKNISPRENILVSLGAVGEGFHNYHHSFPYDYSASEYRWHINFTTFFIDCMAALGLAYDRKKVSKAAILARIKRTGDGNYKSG

SMILES | IC50 [µM]
O=C(NC1CCCC1)c1ncccc1NCC(=O)N1CCC(Oc2ccccc2C(F)(F)F)CC1 | > 10
CC(C)CNC(=O)c1nccnc1NCC(=O)N1CCC(Oc2ccccc2Cl)CC1 | 0.26
O=C(NCc1ccncc1)c1ncccc1NCC(=O)N1CCC(Oc2ccccc2C(F)(F)F)CC1 | 0.35
COC(=O)c1nccnc1NCC(=O)N1CCC(Oc2ccccc2Cl)CC1 | 0.039
CNC(=O)c1nccnc1NCC(=O)N1CCC(Oc2ccccc2Cl)CC1 | 0.051
O=C(NCc1ccccn1)c1nccnc1NCC(=O)N1CCC(Oc2ccccc2Cl)CC1 | 0.11
NC(=O)c1nccnc1NCC(=O)N1CCC(Oc2ccccc2Cl)CC1 | 0.094
CNC(=O)c1ncccc1NCC(=O)N1CCC(Oc2ccccc2C(F)(F)F)CC1 | 0.097
O=C(Nc1ccccc1)c1nccnc1NCC(=O)N1CCC(Oc2ccccc2Cl)CC1 | 0.55
CNC(=O)c1cccnc1NCC(=O)N1CCC(Oc2ccccc2C(F)(F)F)CC1 | > 1
N#Cc1nccnc1NCC(=O)N1CCC(Oc2ccccc2Cl)CC1 | 0.34
O=C(NCCO)c1ncccc1NCC(=O)N1CCC(Oc2ccccc2C(F)(F)F)CC1 | 0.12
CCCNC(=O)c1ncccc1NCC(=O)N1CCC(Oc2ccccc2C(F)(F)F)CC1 | 0.39
CNC(=O)c1nccnc1NCC(=O)N1CCC(C(=O)c2ccccc2)CC1 | > 1

The remaining lines, values ahead:

IC50 [µM] | SMILES
0.035 | CNC(=O)c1nccnc1NCC(=O)N1CCC(Oc2cc(F)cc(F)c2Cl)CC1
0.78 | O=C(NCCc1ccccc1)c1ncccc1NCC(=O)N1CCC(Oc2ccccc2C(F)(F)F)CC1
0.039 | CCNC(=O)c1nccnc1NCC(=O)N1CCC(Oc2ccccc2Cl)CC1
0.09 | NC(=O)c1ncccc1NCC(=O)N1CCC(Oc2ccccc2C(F)(F)F)CC1
7.3 | O=C(NCc1ccccc1)c1cccc(NCC(=O)N2CCC(Oc3ccccc3C(F)(F)F)CC2)n1
0.21 | O=Cc1nccnc1NCC(=O)N1CCC(Oc2ccccc2Cl)CC1
0.14 | O=C(NCc1ccccc1)c1nccnc1NCC(=O)N1CCC(Oc2ccccc2Cl)CC1
0.56 | O=C(NCc1ccccc1)c1ncccc1NCC(=O)N1CCC(Oc2ccccc2Cl)CC1
0.11 | O=C(NCc1ccncc1)c1nccnc1NCC(=O)N1CCC(Oc2ccccc2Cl)CC1
0.1 | O=C(NCCO)c1nccnc1NCC(=O)N1CCC(Oc2ccccc2Cl)CC1
0.038 | CNC(=O)c1nccnc1NCC(=O)N1CCC(Oc2cc(Cl)ccc2Cl)CC1
0.58 | O=C(NCc1ccccc1)c1ccccc1NCC(=O)N1CCC(Oc2ccccc2Cl)CC1
6.3 | CNC(=O)c1nccnc1NCC(=O)N1CCC(Oc2ccccc2)CC1
0.43 | O=C(NCc1cccnc1)c1ncccc1NCC(=O)N1CCC(Oc2ccccc2C(F)(F)F)CC1
0.11 | CCNC(=O)c1ncccc1NCC(=O)N1CCC(Oc2ccccc2C(F)(F)F)CC1
0.051 | CNC(=O)c1nccnc1NCC(=O)N1CCC(Oc2cc(F)ccc2Cl)CC1
0.03 | O=C(CNc1nccnc1Cl)N1CCC(Oc2ccccc2Cl)CC1
> 10 | CN(C)C(=O)c1ncccc1NCC(=O)N1CCC(Oc2ccccc2C(F)(F)F)CC1
0.099 | O=C(NCc1cccnc1)c1nccnc1NCC(=O)N1CCC(Oc2ccccc2Cl)CC1
0.058 | CNC(=O)c1nccnc1NCC(=O)N1CCC(Oc2ccccc2Br)CC1

Source: ChEMBL document CHEMBL1144654, “Discovery of 1-(4-phenoxypiperidin-1-yl)-2-arylaminoethanone stearoyl-CoA desaturase 1 inhibitors” (Bioorg Med Chem Lett, 2007)
